Biological target: phosphorylated active hERK2 enzyme (Homo sapiens (Human), UniProt P28482)
Assay: Active Human ERK2 (hERK2) Activity Assay (IMAP-FP)
Format: biochemical
Conditions: Table 6, 0.5 nM hERK2, 30 μM ATP, 10 point titration, read-out: AERK2 IC50
Procedure, shortened: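 IMAP fluorescence-polarization kinase assay: 0.5 nM activated hERK2 with 900 nM unlabeled plus 80 nM labeled peptide and 30 μM ATP, reacted 60 min. Quenched with IMAP beads in binding buffer with 24 mM NaCl; FP read after 60 min equilibration.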

phosphorylated active hERK2 enzyme, sequence (P28482 whole entry): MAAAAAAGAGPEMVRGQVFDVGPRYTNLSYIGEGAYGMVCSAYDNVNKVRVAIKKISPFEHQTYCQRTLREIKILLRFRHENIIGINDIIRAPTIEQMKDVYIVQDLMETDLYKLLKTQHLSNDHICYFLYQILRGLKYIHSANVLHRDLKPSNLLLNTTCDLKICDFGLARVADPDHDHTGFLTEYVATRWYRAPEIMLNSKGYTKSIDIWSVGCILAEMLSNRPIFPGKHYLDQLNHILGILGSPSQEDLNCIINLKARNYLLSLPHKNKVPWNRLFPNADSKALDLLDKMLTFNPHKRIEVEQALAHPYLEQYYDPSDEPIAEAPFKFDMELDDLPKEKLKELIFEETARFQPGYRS

Compound | IC50 [nM]
C[C@@H](NC(=O)Nc1cc2[nH]nc(NC3CC3)c2cn1)c1ccccc1 [Example 330, 1-[3-(cyclopropyl-amino)-1H-pyrazolo[4,3-c]pyridin-6-yl]-3-[(1R)-1-phenylethyl]urea] | 0.9
CCNc1n[nH]c2cc(NC(=O)N[C@H](C)c3ccccc3)nc(C)c12 [Example 331, (R)-1-(3-(ethylamino)-4-methyl-1H-pyrazolo[4,3-c]pyridin-6-yl)-3-(1-phenylethyl)urea] | 2.9
Cc1nc(NC(=O)N[C@H](C)c2ccccc2)cc2[nH]nc(N3CCC[C@H]3C(=O)O)c12 [Example 332, 1-[4-methyl-6-({[(1R)-1-phenyl-ethyl]carbamoyl}-amino)-1H-pyrazolo[4,3-c]-pyridin-3-yl]proline] | 74.7
Cc1nc(NC(=O)N[C@H](C)c2ccccc2)cc2[nH]nc(N)c12 [Example 333, (R)-1-(3-amino-4-methyl-1H-pyrazolo[4,3-c]pyridin-6-yl)-3-(1-phenylethyl)urea] | 0.7
CCNc1n[nH]c2cc(NC(=O)N[C@H](COC)c3ccccc3)nc(C)c12 [Example 334, 1-[3-(ethylamino)-4-methyl-1H-pyrazolo[4,3-c]-pyridin-6-yl]-3-[(1S)-2-methoxy-1-phenylethyl]urea] | 2.9
COC[C@@H](NC(=O)Nc1cc2[nH]nc(N)c2c(C)n1)c1ccccc1 [Example 335, 1-(3-amino-4-methyl-1H-pyrazolo[4,3-c]-pyridin-6-yl)-3-[(1S)-2-methoxy-1-phenylethyl]urea] | 3
CNc1n[nH]c2cc(NC(=O)N[C@H](C)c3ccccc3)nc(C)c12 [Example 336, 1-[4-methyl-3-(methylamino)-1H-pyrazolo[4,3-c]pyridin-6-yl]-3-[(1R)-1-phenylethyl]urea] | 11.8
CC(=O)Nc1n[nH]c2cc(NC(=O)N[C@H](C)c3ccccc3)nc(C)c12 [Example 337, (R)—N-(4-methyl-6-(3-(1-phenylethyl)ureido)-1H-pyrazolo[4,3-c]pyridin-3-yl)acetamide] | 127
COC(=O)Nc1n[nH]c2cc(NC(=O)N[C@H](C)c3ccccc3)nc(C)c12 [Example 338, methyl [4-methyl-6-({[(1R)-1-phenyl-ethyl]carbamoyl}-amino)-1H-pyrazolo[4,3-c]-pyridin-3-yl]-carbamate] | 16.1
COC[C@H](NC(=O)Nc1cc2[nH]nc(N3CCOCC3)c2cn1)c1ccc(F)cc1 [Example 339, (R)-1-(1-(4-fluorophenyl)-2-methoxyethyl)-3-(3-morpholino-1H-pyrazolo[4,3-c]-pyridin-6-yl)urea] | 0.4
CC(C)Nc1n[nH]c2cc(NC(=O)N[C@H](C)c3ccc(F)cc3)ncc12 [Example 340, (R)-1-(1-(4-fluorophenyl)ethyl)-3-(3-(isopropyl-amino)-1H-pyrazolo[4,3-c]-pyridin-6-yl)urea] | 1.6
C[C@@H](NC(=O)Nc1cc2[nH]nc(NCC(F)(F)F)c2cn1)c1ccccc1 [Example 341, 1-[(1R)-1-phenylethyl]-3-{3-[(2,2,2-trifluoro-ethyl)amino]-1H-pyrazolo[4,3-c]-pyridin-6-yl}urea] | 2.4
COC[C@@H](NC(=O)Nc1cc2[nH]nc(NCC(F)(F)F)c2cn1)c1ccccc1 [Example 342, 1-[(1S)-2-methoxy-1-phenylethyl]-3-{3-[(2,2,2-trifluoro-ethyl)amino]-1H-pyrazolo[4,3-c]-pyridin-6-yl}urea] | 0.9
CNc1n[nH]c2cc(NC(=O)N[C@H](C)c3ccc(Cl)cc3)ncc12 [Example 343, 1-[(1R)-1-(4-chlorophenyl)ethyl]-3-[3-(methyl-amino)-1H-pyrazolo[4,3-c]-pyridin-6-yl]urea] | 7.8
CC[C@@H](NC(=O)Nc1cc2[nH]nc(N3CCCC3)c2cn1)c1ccccn1 [Example 344, 1-[(1R)-1-pyridin-2-ylpropyl]-3-(3-pyrrolidin-1-yl-1H-pyrazolo[4,3-c]-pyridin-6-yl)urea] | 1020
CC[C@H](NC(=O)Nc1cc2[nH]nc(N3CCCC3)c2cn1)c1ccccn1 [Example 345, 1-[(1S)-1-pyridin-2-ylpropyl]-3-(3-pyrrolidin-1-yl-1H-pyrazolo[4,3-c]-pyridin-6-yl)urea] | 13.8
COC[C@@H](NC(=O)Nc1cc2[nH]nc(NC3CCC3)c2cn1)c1ccccc1 [Example 346, 1-[3-(cyclobutyl-amino)-1H-pyrazolo[4,3-c]-pyridin-6-yl]-3-[(1S)-2-methoxy-1-phenylethyl]urea] | 0.4
C[C@@H](NC(=O)Nc1cc2[nH]nc(NCC(=O)N(C)C)c2cn1)c1ccccc1 [Example 347, N,N-dimethyl-N~2~-[6-({[(1R)-1-phenylethyl]-carbamoyl}-amino)-1H-pyrazolo[4,3-c]-pyridin-3-yl]-glycinamide] | 18.3
C[C@@H](NC(=O)Nc1cc2[nH]nc(NCCC(=O)N(C)C)c2cn1)c1ccccc1 [Example 348, N,N-dimethyl-N~3~-[6-({[(1R)-1-phenylethyl]-carbamoyl}amino)-1H-pyrazolo[4,3-c]pyridin-3-yl]-beta-alaninamide] | 3.1

Compound | IC50 [nM]
CC(=O)N(C)c1n[nH]c2cc(NC(=O)N[C@H](C)c3ccccc3)ncc12 [Example 349, N-methyl-N-[6-({[(1R)-1-phenyl-ethyl]carbamoyl}-amino)-1H-pyrazolo[4,3-c]-pyridin-3-yl]-acetamide] | 484
CCN(C(C)=O)c1n[nH]c2cc(NC(=O)N[C@H](C)c3ccccc3)ncc12 [Example 350, N-ethyl-N-[6-({[(1R)-1-phenyl-ethyl]carbamoyl}-amino)-1H-pyrazolo[4,3-c]-pyridin-3-yl]-acetamide] | 33.3
C[C@@H](NC(=O)Nc1cc2[nH]nc(NC(C)(C)C)c2cn1)c1ccccc1 [Example 351, 1-[3-(tert-butylamino)-1H-pyrazolo[4,3-c]-pyridin-6-yl]-3-[(1R)-1-phenylethyl]urea] | 88
Nc1n[nH]c2cc(NC(=O)N[C@H](COC(F)F)c3ccccc3)ncc12 [Example 352, 1-(3-amino-1H-pyrazolo[4,3-c]-pyridin-6-yl)-3-[(1S)-2-(difluoromethoxy)-1-phenylethyl]urea] | 1.2
CCNc1n[nH]c2cc(NC(=O)N[C@H](COC(F)F)c3ccccc3)ncc12 [Example 353, 1-[(1S)-2-(difluoromethoxy)-1-phenylethyl]-3-[3-(ethylamino)-1H-pyrazolo[4,3-c]pyridin-6-yl]urea] | 0.6
C[C@H](Nc1n[nH]c2cc(NC(=O)N[C@H](C)c3ccccc3)ncc12)C(F)F [Example 354, 1-(3-{[(1S)-2,2-difluoro-1-methyl-ethyl]amino}-1H-pyrazolo[4,3-c]-pyridin-6-yl)-3-[(1R)-1-phenylethyl]urea] | 2.2
C[C@@H](NC(=O)Nc1cc2[nH]nc(N[C@H](C)C(F)F)c2cn1)c1ccccc1 [Example 355, 1-(3-{[(1R)-2,2-difluoro-1-methyl-ethyl]amino}-1H-pyrazolo[4,3-c]-pyridin-6-yl)-3-[(1R)-1-phenylethyl]urea] | 2.9
C[C@@H](NC(=O)Nc1cc2[nH]nc(NC3(C)CCC3)c2cn1)c1ccccc1 [Example 356, 1-{3-[(1-methylcyclo-butyl)amino]-1H-pyrazolo[4,3-c]-pyridin-6-yl}-3-[(1R)-1-phenylethyl]urea] | 54.1
CSC[C@@H](NC(=O)Nc1cc2[nH]nc(N)c2cn1)c1ccccc1 [Example 357, 1-(3-amino-1H-pyrazolo[4,3-c]-pyridin-6-yl)-3-[(1S)-2-(methylsulfanyl)-1-phenylethyl]urea] | 1.4
CCNc1n[nH]c2cc(NC(=O)N[C@H](CSC)c3ccccc3)ncc12 [Example 358, 1-[3-(ethylamino)-1H-pyrazolo[4,3-c]pyridin-6-yl]-3-[(1S)-2-(methylsulfanyl)-1-phenylethyl]urea] | 0.8
C[C@@H](NC(=O)Nc1cc2[nH]nc(NC3CCSC3)c2cn1)c1ccccc1 (stereo partly drawn) [Example 359, 1-[(1R)-1-phenylethyl]-3-[3-(tetrahydrothiophen-3-ylamino)-1H-pyrazolo[4,3-c]-pyridin-6-yl]urea] | 1.2
C[C@@H](NC(=O)Nc1cc2[nH]nc(NC3CC[S+]([O-])C3)c2cn1)c1ccccc1 (stereo partly drawn) [Example 360, 1-{3-[(1-oxidotetrahydrothio-phen-3-yl)amino]-1H-pyrazolo[4,3-c]pyridin-6-yl}-3-[(1R)-1-phenylethyl]urea] | 2.6
COCC(C)(C)Nc1n[nH]c2cc(NC(=O)N[C@H](C)c3ccccc3)ncc12 [Example 361, 1-{3-[(2-methoxy-1,1-dimethylethyl)-amino]-1H-pyrazolo[4,3-c]-pyridin-6-yl}-3-[(1R)-1-phenylethyl]urea] | 385
Nc1n[nH]c2c(F)c(NC(=O)N[C@H](COC(F)F)c3ccccc3)ncc12 [Example 362, 1-(3-amino-7-fluoro-1H-pyrazolo[4,3-c]-pyridin-6-yl)-3-[(1S)-2-(difluoromethoxy)-1-phenylethyl]urea] | 1.3
Nc1n[nH]c2c(Cl)c(NC(=O)N[C@H](COC(F)F)c3ccccc3)ncc12 [Example 363, 1-(3-amino-7-chloro-1H-pyrazolo[4,3-c]pyridin-6-yl)-3-[(1S)-2-(difluoromethoxy)-1-phenylethyl]urea] | 52.2
CC(=O)Nc1n[nH]c2cc(NC(=O)N[C@H](COC(F)F)c3ccccc3)ncc12 [Example 364, N-[6-({[(1S)-2-(difluoromethoxy)-1-phenylethyl]-carbamoyl}amino)-1H-pyrazolo[4,3-c]pyridin-3-yl]-acetamide] | 0.3
C[C@@H](O)[C@@H](NC(=O)Nc1cc2[nH]nc(N3CCC(F)(F)CC3)c2cn1)c1ccc(F)cc1 [Example 365, 1-[3-(4,4-difluoropiperidin-1-yl)-1H-pyrazolo[4,3-c]pyridin-6-yl]-3-[(1S,2R)-1-(4-fluorophenyl)-2-hydroxypropyl]urea] | 0.9
CC(C)(O)[C@@H](NC(=O)Nc1cc2[nH]nc(N3CCC(F)(F)CC3)c2cn1)c1ccccc1 [Example 366, 1-[3-(4,4-difluoropiperidin-1-yl)-1H-pyrazolo[4,3-c]pyridin-6-yl]-3-[(1S)-2-hydroxy-2-methyl-1-phenylpropyl]urea] | 0.4
